These results are taken from patent publication EP0472220A1, “Bradykinin antagonists” (SYNTEX (U.S.A.) INC., priority 1990, dated 1992).

In brackets after ≈: the same amount, converted by molar mass. Where a SMILES comes first, the peptide text is derived from it. Where no end group is shown, it is not given here. [ ]: non-standard residue; d: D form. d(hArg)(Nω,Nω'-(CH2CF3)2) = N[C@H](CCCCNC(=NCC(F)(F)F)NCC(F)(F)F)C(=O)O; Oic = O=C(O)[C@@H]1C[C@@H]2CCCC[C@@H]2N1; Arg(Me2s) = CN=C(NC)NCCC[C@H](N)C(=O)O; Arg(Et) = CCNC(=N)NCCC[C@H](N)C(=O)O; Arg(Me) = CNC(=N)NCCC[C@H](N)C(=O)O; Hyp = O=C(O)[C@@H]1C[C@@H](O)CN1; dTic = O=C(O)[C@H]1Cc2ccccc2CN1; 2Thi = N[C@@H](Cc1cccs1)C(=O)O

Data set [1] can be described thus: in vitro. The procedure: (§1) The ability of bradykinin antagonists to resist proteolysis was determined by measuring the half-life of the analogs in plasma using HPLC. Rat blood was collected into heparin-containing tubes and centrifuged at 2000 X g for 10 minutes at 4°C to separate the plasma. Plasma samples were supplemented with bradykinin analogs (60 µM) and incubated at 37°C. At various times during incubation, an aliquot was removed and the reaction was stopped with 10% trifluoroacetic acid (TFA). The reaction mixture was applied to a 1 mL C₁₈ solid-phase extraction column (Baker) preconditioned with methanol and 10% TEA in H₂O. The analog was eluted with 3 x 100 µl of 15% acetonitrile (CH₃CN), 85% H₂O containing 0.2% TFA. The eluent was dried in a Speed-Vac concentrator (Savant) and redissolved in 300 µL of mobile phase consisting of various proportions of CH₃CN and H₂O containing 0.2% TEA depending on the analog. The sample was injected onto a Pecosphere® (Perkin-Elmer) 3 µm C₁₈ cartridge column (3.3 x 0.46 cm) and eluted with mobile phase at a flow rate of 1 ml/min using a Waters HPLC system. The analog was monitored by uv absorption at 210 nm and the results analyzed with a Hewlett-Packard integrator. Peak height was used to quantitate the amount of analog present in the sample. Plasma degradation followed first-order kinetics and the t1/2 (the time required for half the sample to be degraded) was determined graphically from a plot of log % analog remaining vs. incubation time.

The nature of data set [2]: in vitro. The method, then: as §1
The source holds these as a separate data set.

Data set [3] addresses T1, Bradykinin Receptor (Cavia porcellus, UniProt O70526).
T1 construct: A 5 cm section of the distal ileum was removed, rinsed in cold saline and homogenized; from tissue; host or cells: guinea pig distal ileum, crude membrane pellet
T1 sequence (O70526 1-372): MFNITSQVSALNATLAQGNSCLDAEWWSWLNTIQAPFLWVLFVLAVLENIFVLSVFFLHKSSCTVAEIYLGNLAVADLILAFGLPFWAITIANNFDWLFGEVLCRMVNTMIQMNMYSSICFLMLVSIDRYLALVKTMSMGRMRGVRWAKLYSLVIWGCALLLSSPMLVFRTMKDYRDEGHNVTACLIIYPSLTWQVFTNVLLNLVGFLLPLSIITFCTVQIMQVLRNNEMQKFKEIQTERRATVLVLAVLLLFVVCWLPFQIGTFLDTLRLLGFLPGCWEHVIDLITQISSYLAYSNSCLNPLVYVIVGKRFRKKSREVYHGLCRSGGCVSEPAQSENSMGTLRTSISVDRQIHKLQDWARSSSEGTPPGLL
The data set is described as follows: Guinea pig ileum bradykinin receptor binding assay. The following applies: concentration of analog that reduced the binding of 100 pM [³H]bradykinin by 50%; guinea pig ileum membrane preparation; read-out: IC₅₀. The procedure: The bradykinin analogs were assayed using a cell-free membrane receptor binding assay described by Innis et al Proc. Natl. Acad. Sci. USA 1981, 78:2630. Male Hartley guinea pigs (400-500g, Charles River) were euthanized by CO₂ asphyxiation. A 5 cm section of the distal ileum was removed, rinsed in cold saline and homogenized in 20 volumes of cold 20 mM TES buffer, pH 6.8, 1mM 1,10-phenanthroline using a Tissumizer (Tekmar) at 75% maximum speed for 12 seconds. The homogenate was centrifuged at 15,000 X g for 25 minutes at 4°C. The crude membrane pellet was washed once in 20 volumes of fresh homogenizing buffer and resuspended in assay buffer (25 mM TES buffer, pH 6.8, 1 mM dithiothreitol, 1 mM 1,10-phenanthroline, 1 µM captopril, 0.014% bacitracin and 0.1% bovine serum albumin) at 100 mL buffer per gram issue. The membrane preparation was quick-frozen in liquid N₂ and stored at -80°C.
The reaction mixture for the receptor binding assay contained bradykinin analog (1-1000 nM), 100 pM [³H]bradykinin (88 Ci/mmol) and 200 µl membrane preparation in a total volume of 500 µl assay buffer. Reactions were incubated at room temperature for 90 minutes and membrane-bound [³H]bradykinin was isolated by filtration through PEI-coated glass fiber filters. The filters were dried and counted for radioactivity in a liquid scintillation counter. Specific binding was calcuated by subtracting the nonspecific binding (determined in a parallel set of assays in the presence of 1 µM unlabeled bradykinin) from the total radioactivity bound to the filters. All incubations were performed in duplicate and the data expressed as % reduction in the specific binding of [³H]bradykinin. The IC₅₀ (the concentration of analog that reduced the binding of 100 pM [³H]bradykinin by 50%) was determined graphically from a plot of % reduction vs. log concentration.

In data set [4] the test system is Bradykinin-induced Hypotension. The data set can be described thus: Protection against bradykinin-induced hypotension in rats. In kind it is in vivo, Male Sprague-Dawley rats. The following applies: co-administration (50-200 nmol/kg) with bradykinin (0.4 µg/kg) via carotid cannula, anesthetized rats. The method, then: Male Sprague-Dawley rats (200-300 g, Charles River) were anesthetized with 40 mg/kg ip sodium pentobarbital. The left femoral artery and vein were fitted with polyethylene cannulas (Intramedic PE-50) and the left carotid artery was fitted with a PE-20 cannula. […] The femoral arterial cannula was connected to a blood pressure transducer (Statham) and Beckman dynograph for recording systolic and diastolic pressure. The femoral venous cannula was used to administer maintenance anesthesia. […] All cannulas were filled with heparinized (40 U/mL) saline to maintain patency. Rats were placed on a 37°C water blanket and allowed to reach a stable anesthetic plane characterized by a mean arterial blood pressure of ≧90 mm Hg and a positive response to a toe pinch.

Data set [5] has as its system rat peritoneal mast cells. Conditions: rat mixed peritoneal cells, 15 minutes, 35°C.
Description: Mixed peritoneal cells were recovered from 3 or 4 male Sprague-Dawley rats (350 g, Iffa-Credo, France) by intraperitoneal injection of 10 mL of 0.9% NaCl (containing 50 µg/mL heparin). After gentle massage of the abdominal cavity for 1 minute, the peritoneal cells were removed, pooled and centrifuged for 5 minutes at 300 g. After three rinses in Krebs-Ringer Buffer (KRB: 141.9 mM NaCl; 4.7 mM KCl; 1.0 mM CaCl₂, 11.2 mM MgSO₄; 2.5 mM Na₂HPO₄; 0.6 mM KH₂PO₄), the cells were counted under a microscope and diluted in the appropriate volume of KRB to achieve a cell density of about 2 x 10⁶ cells per mL. Aliquots of 0.5 mL were prewarmed with 0.4 mL Ca⁺⁺-free KRB for 5 minutes at 35°C and 0.1 mL of the appropriate solution of the drugs tested was added or its vehicle alone. 15 minutes later, the reaction was stopped by the addition of 2.5 mL ice-cold KRB and chilling on ice.
After centrifugation of the cell suspension, the histamine content of the supernatant was assayed fluorimetrically by the method of Shore et al., (Immunol. 1959, 127:182) omitting the extraction procedure (Excitation 365 nm; Emission 450 nm).
The total histamine content of the cell suspension was determined after sonication (2 minutes - 5 second pulse frequency).
The spontaneous histamine release was subtracted from all the values measured.
For data set [6] the following is noted: Ferreira et al. 1967; cited from earlier work.

Turning to `CN=C(N)NCCC[C@H](NC(=O)[C@@H]1C[C@@H]2CCCC[C@@H]2N1C(=O)[C@H]1Cc2ccccc2CN1C(=O)[C@H](CO)NC(=O)[C@H](Cc1cccs1)NC(=O)CNC(=O)[C@@H]1C[C@@H](O)CN1C(=O)[C@@H]1CCCN1C(=O)[C@H](CCCNC(N)=NC)NC(=O)[C@H](N)CCCCNC(=NCC(F)(F)F)NCC(F)(F)F)C(=O)O` [Compound 22, D-hArg(CH₂CF₃)₂-Arg(Me)-Pro-Hyp-Gly-Thi-Ser-D-Tic-Oic-Arg(Me)], the half-life at 60 µM in data set [1] (mouse, plasma) was over 2 h; in data set [2] (human, plasma), over 2 h. Also, in data set [3], the IC50 worked out at 0.05 nM.
Take `CN=C(N)NCCC[C@H](NC(=O)[C@@H]1CCCN1C(=O)[C@H]1Cc2ccccc2CN1C(=O)[C@H](CO)NC(=O)[C@H](Cc1ccccc1)NC(=O)CNC(=O)[C@@H]1C[C@@H](O)CN1C(=O)[C@@H]1CCCN1C(=O)[C@H](CCCNC(N)=NC)NC(=O)[C@H](N)CCCCNC(=NCC(F)(F)F)NCC(F)(F)F)C(=O)O` [Compound 21, D-hArg(CH₂CF₃)₂-Arg(Me)-Pro-Hyp-Gly-Phe-Ser-D-Tic-Pro-Arg(Me)] (H-[d(hArg)(Nω,Nω'-(CH2CF3)2)][Arg(Me)]P[Hyp]GFS[dTic]P[Arg(Me)]-OH): the IC50 in data set [3] was 2.2 nM.
Regarding `CN=C(N)NCCC[C@H](NC(=O)[C@@H]1C[C@@H]2CCCC[C@@H]2N1C(=O)[C@H]1Cc2ccccc2CN1C(=O)[C@H](CO)NC(=O)[C@H](Cc1ccccc1)NC(=O)CNC(=O)[C@@H]1C[C@@H](O)CN1C(=O)[C@@H]1CCCN1C(=O)[C@H](CCCNC(N)=NC)NC(=O)[C@H](N)CCCCNC(=NCC(F)(F)F)NCC(F)(F)F)C(=O)O` [Compound 91, D-hArg(CH₂CF₃)₂-Arg(Me)-Pro-Hyp-Gly-Phe-Ser-D-Tic-Oic-Arg(Me)] (H-[d(hArg)(Nω,Nω'-(CH2CF3)2)][Arg(Me)]P[Hyp]GFS[dTic][Oic][Arg(Me)]-OH), the half-life at 60 µM in data set [1] (mouse, plasma) was over 2 h; in data set [2] (human, plasma), over 2 h. In addition, the IC50 in data set [3] worked out at 0.05 nM.
For `CN=C(N)NCCC[C@H](NC(=O)[C@H](Cc1ccccc1)NC(=O)[C@@H](Cc1ccccc1)NC(=O)[C@H](CO)NC(=O)[C@H](Cc1ccccc1)NC(=O)CNC(=O)[C@@H]1C[C@@H](O)CN1C(=O)[C@@H]1CCCN1C(=O)[C@H](CCCNC(=N)N)NC(=O)[C@H](N)CCCCNC(=NCC(F)(F)F)NCC(F)(F)F)C(=O)O` [Compound 1, D-hArg(CH₂CF₃)₂-Arg-Pro-Hyp-Gly-Phe-Ser-D-Phe-Phe-Arg(Me)], the half-life at 60 µM in data set [1] (mouse, plasma) is over 2 h; in data set [2] (human, plasma), over 2 h.
`CN=C(N)NCCC[C@H](NC(=O)[C@H](Cc1ccc(OC)cc1)NC(=O)[C@@H](Cc1ccccc1)NC(=O)[C@H](CO)NC(=O)[C@H](Cc1ccccc1)NC(=O)CNC(=O)[C@@H]1C[C@@H](O)CN1C(=O)[C@@H]1CCCN1C(=O)[C@H](CCCNC(=N)N)NC(=O)[C@H](N)CCCNC(=N)N)C(=O)O` [Compound 74, D-Arg-Arg-Pro-Hyp-Gly-Phe-Ser-D-Phe-Tyr(Me)-Arg(Me)] (H-[dR]RP[Hyp]GFS[dF]Y(Me)[Arg(Me)]-OH): the half-life at 60 µM in data set [1] (mouse, plasma) is over 2 h; in data set [2] (human, plasma), over 2 h. In addition, the IC50 in data set [3] turned out to be 30 nM.
With `CN=C(N)NCCC[C@H](NC(=O)[C@H](Cc1ccc(OC)cc1)NC(=O)[C@@H](Cc1ccccc1)NC(=O)[C@H](CO)NC(=O)[C@H](Cc1ccccc1)NC(=O)CNC(=O)[C@@H]1C[C@@H](O)CN1C(=O)[C@@H]1CCCN1C(=O)[C@H](CCCNC(=N)N)NC(=O)[C@H](N)CCCCNC(=NCC(F)(F)F)NCC(F)(F)F)C(=O)O` [Compound 4, D-hArg(CH₂CF₃)₂-Arg-Pro-Hyp-Gly-Phe-Ser-D-Phe-Tyr(Me)-Arg(Me)] (H-[d(hArg)(Nω,Nω'-(CH2CF3)2)]RP[Hyp]GFS[dF]Y(Me)[Arg(Me)]-OH), the “protection against bradykinin-induced hypotension (drop in blood pressure)” value in data set [4] is “reduced or prevented the drop in blood pressure”.
For the molecule `CN=C(NC)NCCC[C@H](NC(=O)[C@@H]1C[C@@H]2CCCC[C@@H]2N1C(=O)[C@H]1Cc2ccccc2CN1C(=O)[C@H](CO)NC(=O)[C@H](Cc1cccs1)NC(=O)CNC(=O)[C@@H]1C[C@@H](O)CN1C(=O)[C@@H]1CCCN1C(=O)[C@H](CCCNC(=NC)NC)NC(=O)[C@H](N)CCCCNC(=NCC(F)(F)F)NCC(F)(F)F)C(=O)O` [Compound 81, D-hArg(CH₂CF₃)₂-Arg(Me₂)-Pro-Hyp-Gly-Thi-Ser-D-Tic-Oic-Arg(Me₂)], in data set [3], the IC50 was determined as 0.15 nM.
The same measure, in the same setting: with `N=C(N)NCCC[C@H](NC(=O)[C@@H]1CCCN1C(=O)[C@H]1Cc2ccccc2CN1C(=O)[C@H](CO)NC(=O)[C@H](Cc1cccs1)NC(=O)CNC(=O)[C@@H]1C[C@@H](O)CN1C(=O)[C@@H]1CCCN1C(=O)[C@H](CCCNC(=N)N)NC(=O)[C@H](N)CCCCNC(=NCC(F)(F)F)NCC(F)(F)F)C(=O)O` [Compound 75, D-hArg(CH₂CF₃)₂-Arg-Pro-Hyp-Gly-Thi-Ser-D-Tic-Pro-Arg] (H-[d(hArg)(Nω,Nω'-(CH2CF3)2)]RP[Hyp]G[2Thi]S[dTic]PR-OH) the figure was 1 nM.
As to `CN=C(NC)NCCC[C@H](NC(=O)[C@@H]1C[C@@H]2CCCC[C@@H]2N1C(=O)[C@H]1Cc2ccccc2CN1C(=O)[C@H](CO)NC(=O)[C@H](Cc1ccccc1)NC(=O)CNC(=O)[C@@H]1C[C@@H](O)CN1C(=O)[C@@H]1CCCN1C(=O)[C@H](CCCNC(=NC)NC)NC(=O)[C@H](N)CCCCNC(=NCC(F)(F)F)NCC(F)(F)F)C(=O)O` [Compound 89, D-hArg(CH₂CF₃)₂-Arg(Me₂)-Pro-Hyp-Gly-Phe-Ser-D-Tic-Oic-Arg(Me₂)] (H-[d(hArg)(Nω,Nω'-(CH2CF3)2)][Arg(Me2s)]P[Hyp]GFS[dTic][Oic][Arg(Me2s)]-OH), the “EC50 (histamine release)” value in data set [5] is reported as 312 µg/mL (≈ 204 µM). Also, the IC50 in data set [3] was determined as 0.07 nM.
The like results for `CCN=C(N)NCCC[C@H](NC(=O)[C@H](N)CCCCNC(=NCC(F)(F)F)NCC(F)(F)F)C(=O)N1CCC[C@H]1C(=O)N1C[C@H](O)C[C@H]1C(=O)NCC(=O)N[C@@H](Cc1ccccc1)C(=O)N[C@@H](CO)C(=O)N1Cc2ccccc2C[C@@H]1C(=O)N1[C@H](C(=O)N[C@@H](CCCNC(=NC)NC)C(=O)O)C[C@@H]2CCCC[C@@H]21` [Compound 90, D-hArg(CH₂CF₃)₂-Arg(Et)-Pro-Hyp-Gly-Phe-Ser-D-Tic-Oic-Arg(Me₂)] (H-[d(hArg)(Nω,Nω'-(CH2CF3)2)][Arg(Et)]P[Hyp]GFS[dTic][Oic][Arg(Me2s)]-OH) were, in that order, 216 µg/mL (≈ 141 µM) and 0.04 nM.
Take RPPGFSPFR [bradykinin]: the “half-life in the systemic circulation” value in data set [6] was “less than 30 seconds”. The half-life at 60 µM is under 0.0833 h in data set [1]; under 0.0833 h in data set [1] (rat, plasma); under 0.0833 h in data set [2].
